Measurements from patent US5387409A, “Boronic acid adducts of rhenium dioxime and technetium-99m dioxime complexes containing a biochemically active group” (Bracco International B.V., priority 1992, dated 1995).

Assays:
[1] = Cyclic voltammetry in DMF (peak potential vs. Ag/AgNO3); type: physicochemical; settings: for Epc(DMF): cathodic peak potential in DMF vs. Ag/AgNO3 (Table 3); for Peak Potential (EP), Nitro-base Anodic / Peak Potential (EP), Nitro-base Cathodic: DMF, scan rate = 100 mV/sec, Ag/AgNO3 reference (Table 2)
xanthine oxidase = experiment: Enzyme assay: xanthine oxidase reduction (disappearance of the nitro compound, UV/Visible 326 nm); type: biochemical
Description: The nitroimidazole boronic acids in this invention were examined in an assay using the enzyme xanthine oxidase. […] All reagents were degassed prior to mixing by passage of argon over the surface for 20 minutes. Loss of the nitro group (an indication of reduction) was monitored every 5 minutes using a UV/Visible spectrophotometer set at 326 nm. The half-lives of disappearance of the nitro compounds were determined by plotting log (concentration) mmole/ml vs time for all compounds studied.

[2] = Electrochemical peak potential (cathodic) in water vs. saturated calomel electrode; type: physicochemical; settings: cathodic peak potential in water vs. saturated calomel electrode (Table 3)
[3] = Biodistribution: lung uptake of amine-containing 99mTc (BATO) complexes in rats; type: in vivo; settings: I.V.
Description: Biodistribution Results for Amine-substituted Boron complexes, ^99m Tc(chloride)(dimethylglyoxime)3 B-R (wherein R is or contains an amine)
The other complexes listed were prepared using the methodology described in Example 2. Lung uptake at 5 and 60 minutes post I.V. administration of these compounds was noted.

estrogen receptor = experiment: In vitro estrogen receptor binding studies, cytosolic preparations of isolated rat uteri; settings: rat uteri cytosol; preparations with specific activity from 400 to 2000 Ci/mmol
[4] = hypoxanthine, pH 7.4, 0.25 μMoles nitro compound

Row | Molecule | Epc(DMF) [1] | half life (enzyme assay) (xanthine oxidase; [4]) | Epc(Aqueous) [2] | Peak Potential (EP), Nitro-base Anodic [1] | Peak Potential (EP), Nitro-base Cathodic [1] | also measured
1 | O=[N+]([O-])c1cn(Cc2ccc(B(O)O)cc2)cn1 [BB4NO2, 1-(4-Nitroimidazole)-benzylboronic acid] | -1.80 V | 95 min | -0.50 V | – | – | –
2 | O=[N+]([O-])c1nccn1Cc1ccc(B(O)O)cc1 [BBNO2, 1-(2-Nitroimidazoyl)benzylboronic acid] | – | 11 min | – | – | – | –
3 | O=[N+]([O-])c1nccn1CCc1ccc(B(O)O)cc1 [BPhEtNO2, 4-(2-Nitroimidazolylethyl)phenyl boronic acid] | -1.53 V | 42.5 min | -0.30 V | – | – | –
4 | O=[N+]([O-])c1nccn1CC=CB(O)O [BPropeneNO2, 2-Nitroimidazolyl-N1-[2-propenyl]-3-boronic acid] | -1.56 V | 24 min | -0.30 V | – | – | –
5 | Cc1ncc([N+](=O)[O-])n1CCO [Metronidazole, reference compound] | -1.62 V | – | -0.46 V | -1.55 | -1.63 | half life (enzyme assay) (xanthine oxidase; pH 7.4): > 1440 min
6 | COCC(O)Cn1ccnc1[N+](=O)[O-] (stereo not drawn) [Misonidazole, reference compound] | -1.49 V | 45 min | -0.33 V | -1.43 | -1.51 | –
7 | ^99 Tc(chlorine)(1,2-cyclohexanedione dioxime)3 1-(2-nitroimidazoyl)benzyl boron [Complex of Example 13] | – | – | – | -1.50 | -1.56 | –
8 | ^99 Tc(chlorine)(dimethylglyoxime)3 -1-(2-nitroimidazoyl)benzylboron [Complex of Example 15] | – | – | – | -1.51 | -1.58 | –
9 | ^99m Tc(chloride)(dimethylglyoxime)3 [4-[2-[(1-methylethyl)amino]propyl]phenyl]boron | – | – | – | – | – | % Injected Dose in Lungs, 5 min. P.I. ([3]; 5 min. post-injection): 3.25 % Injected Dose; % Injected Dose in Lungs, 60 min. P.I. ([3]; 60 min. post-injection): 2.19 % Injected Dose
10 | ^99m/99 Tc(chloride)(dimethylglyoxime)3 (estradiol boron) [technetium labeled estradiol] | – | – | – | – | – | specific binding (estrogen receptor): 10-30 % of the total bound activity
